Among the data in BindingDB's records for doi:10.1021/jm049465g (National Institute On Drug Abuse-Intramural Research Program, 2005) are EC50 values, retold here.

This test in a line: Inhibition of quinpirole stimulation of mitogenesis at human dopamine D2 receptors expressed in Chinese hamster ovary cells.

A word on the EC50: it is the concentration at which the effect is half-maximal. Low readings indicate a more potent agent, high ones a less potent agent.

Molecules are shown by their SMILES.

Compound `O=C(NC/C=C/CN1CCN(c2cccc(Cl)c2Cl)CC1)c1ccc(I)cc1` [N-{4-[4-(2,3-Dichloro-phenyl)-piperazin-1-yl]-but-2-enyl}-4-iodo-benzamide] gave an EC50 of 0.162 µM.

Take `COc1ccc(C(=O)NC/C=C/CN2CCN(c3cccc(Cl)c3Cl)CC2)cc1` [N-{4-[4-(2,3-Dichloro-phenyl)-piperazin-1-yl]-but-2-enyl}-4-methoxy-benzamide]: the EC50 turned out to be 0.0618 µM.

The compound `O=C(NC/C=C/CN1CCN(c2cccc(Cl)c2Cl)CC1)c1ccc([N+](=O)[O-])cc1` [N-{(E)-4-[4-(2,3-Dichloro-phenyl)-piperazin-1-yl]-but-2-enyl}-4-nitro-benzamide] displayed a concentration for a half-maximal effect (EC50) of 0.0138 µM.
